Measurements taken from publication PMC10508631, “Development of an antibody fused with an antimicrobial peptide targeting Pseudomonas aeruginosa: A new approach to prevent and treat bacterial infections” (PLOS Pathogens, 2023).
In brackets after ≈: the same amount, converted by molar mass. Like-named read-outs stand apart in the source and are kept apart here. Where a SMILES comes first, the peptide text is derived from it.

Experiments:
P. aeruginosa ATCC 39324 = format: cell-based, Pseudomonas aeruginosa
Procedure: All plates were placed at 37°C overnight.

293T human cell line = test: Mammalian cell cytotoxicity (CellTiter Glo); format: cell-based; conditions: 293T cells, 10,000 cells/well, three days, 37°C, CellTiter Glo luminescence
Procedure: On day one, cells from an established 293T human cell line were seeded onto 96-well flat-bottom white plates (10,000 293T cells/well). On day two, dilution plates were prepared by diluting compound in cell growth medium to two times the final starting concentration and then carrying out serial two-fold dilutions across the plate. Medium from the cell growth assay plates was then aspirated, and 50 μl from the compound dilution plates were transferred to the assay plates. Fifty microliters of fresh media were then added to all the wells. The plates were incubated at 37°C, 5% CO2 for three days. […]. Media from the assay plates was aspirated, and 100 μl of CellTiter Glo/growth media mix was added to all wells. After five minutes, luminescence was read, and% inhibition vs. compound concentration was plotted.

[1] = CLSI microdilution, 2-fold dilutions, ~5 x 10^5 cells/ml, 37°C, 18 hours, MIC = at least 80% growth inhibition

| Structure (SMILES) | MIC P. aeruginosa ATCC 39324 (P. aeruginosa ATCC 39324; [1]) [µg/mL] | Cytotox CC50 (293T human cell line) [µg/mL] | MIC P. aeruginosa ATCC 39324 (P. aeruginosa ATCC 39324; ATCC 39324, 18 h) [µg/mL] |
| --- | --- | --- | --- |
| CC[C@H](C)[C@H](NC(=O)[C@H](CCCCN)NC(=O)[C@H](CCCCN)NC(=O)[C@H](CC(C)C)NC(=O)[C@H](CCCCN)NC(=O)[C@H](CCC(=O)O)NC(=O)[C@H](CCCCN)NC(=O)[C@@H](NC(=O)[C@H](CCCCN)NC(=O)[C@H](CC(N)=O)NC(=O)[C@H](CCCNC(=N)N)NC(=O)[C@H](Cc1ccccc1)NC(=O)[C@H](CCCCN)NC(=O)[C@H](CCCNC(=N)N)NC(=O)[C@H](CC(C)C)NC(=O)[C@H](CCCNC(=N)N)NC(=O)[C@H](CCCCN)NC(=O)[C@H](CCCNC(=N)N)NC(=O)[C@H](CC(C)C)NC(=O)CNC(=O)CNC(=O)CNC(=O)CN)[C@@H](C)CC)C(=O)NCC(=O)N[C@@H](CCC(N)=O)C(=O)N[C@@H](CCCCN)C(=O)N[C@H](C(=O)N[C@@H](CCC(N)=O)C(=O)NCC(=O)N[C@@H](CC(C)C)C(=O)N[C@@H](CC(C)C)C(=O)N1CCC[C@H]1C(=O)N[C@@H](CCCCN)C(=O)N[C@@H](CC(C)C)C(=O)N[C@@H](C)C(=O)O)[C@@H](C)CC [P271] (H-GGGGLRKRLRKFRNKIKEKLKKIGQKIQGLLPKLA-OH) | 8 (≈ 2.01 µM) | 250 | – |
| CC[C@H](C)[C@H](NC(=O)CNC(=O)CNC(=O)CNC(=O)CN)C(=O)NCC(=O)N[C@@H](CCCCN)C(=O)N[C@@H](Cc1ccccc1)C(=O)N[C@@H](CC(C)C)C(=O)N[C@@H](CCCCN)C(=O)N[C@@H](CCCCN)C(=O)N[C@@H](C)C(=O)N[C@@H](CCCCN)C(=O)N[C@@H](CCCCN)C(=O)N[C@@H](Cc1ccccc1)C(=O)NCC(=O)N[C@@H](CCCCN)C(=O)N[C@@H](C)C(=O)N[C@@H](Cc1ccccc1)C(=O)N[C@H](C(=O)N[C@@H](CCCCN)C(=O)N[C@H](C(=O)N[C@@H](CC(C)C)C(=O)N[C@@H](CCCCN)C(=O)N[C@@H](CCCCN)C(=O)O)[C@@H](C)CC)C(C)C [P261] (H-GGGGIGKFLKKAKKFGKAFVKILKK-OH) | 8 (≈ 3.02 µM) | 250 | – |
| CC[C@H](C)[C@H](NC(=O)[C@H](CCCCN)NC(=O)[C@H](CCCNC(=N)N)NC(=O)CNC(=O)[C@H](CC(C)C)NC(=O)[C@H](CCCNC(=N)N)NC(=O)[C@H](CCCNC(=N)N)NC(=O)[C@H](CC(C)C)NC(=O)CNC(=O)[C@H](CCCNC(=N)N)NC(=O)CNC(=O)CNC(=O)CN)C(=O)N[C@@H](C)C(=O)N[C@@H](Cc1c[nH]cn1)C(=O)NCC(=O)N[C@H](C(=O)N[C@@H](CCCCN)C(=O)N[C@@H](CCCCN)C(=O)N[C@@H](Cc1ccc(O)cc1)C(=O)NCC(=O)N1CCC[C@H]1C(=O)N[C@H](C(=O)N[C@H](C(=O)N[C@@H](CC(C)C)C(=O)N[C@@H](CCCNC(=N)N)C(=O)N[C@H](C(=O)N[C@H](C(=O)N[C@@H](CCCCN)C(=O)N[C@@H](CCCCN)C(=O)N[C@@H](Cc1ccc(O)cc1)C(=O)NCC(=O)O)[C@@H](C)CC)[C@@H](C)CC)C(C)C)[C@@H](C)O)C(C)C [P294] (H-GGGRGLRRLGRKIAHGVKKYGPTVLRIIKKYG-OH) | – | – | 2 (≈ 0.57 µM) |
